Test results from patent US5334583A (priority 1982, dated 1994).

Assays:
Assay type in all cases: in vivo
[1] = system: Influenza B/Hong Kong/5/72; assay: Survival of mice infected intranasally with lethal dose of Influenza B/Hong Kong/5/72; settings: intranasal, day -7, 0.1 mg/kg single dose; control 30
[2] = system: Herpesvirus hominis 2/Angelotti; assay: Topical chemotherapy of Herpes genitalis in guinea pigs, local symptoms; settings: for Animals [%] with regression of symptoms of ≥ 66% on day 7 / Animals [%] with regression of symptoms of ≥ 66% on day 10 / Animals [%] with regression of symptoms of ≥ 66% on day 12 / Animals [%] with regression of symptoms of ≥ 66% on day 14 / Symptom-free animals [%] on day 10 / Symptom-free animals [%] on day 12 / Symptom-free animals [%] on day 14 / Symptom-free animals [%] on day 21: placebo 0, untreated 0; for Symptom-free animals [%] on day 34: placebo 0, untreated 20
Description: The number indicated in the following Table of female albino guinea pigs of the Pirbright strain (150-180 g body weight) are infected intravaginally with ~10^4 PFU (plaque-forming units) of Herpesvirus hominis 2/Angelotti, cultivated in HEL (human embryonal lungs) cells, as described in B. Lukas et. al., Arch. ges. Virusforsch. 44, 153-155 (1974) .
At the time indicated in the following Table (the time difference in days in relation to the day of infection, - [minus] indicating a time before infection) the number N of guinea pigs indicated in Table 2 are treated intravaginally with a single dose of in each case 0.1 ml of a gel containing the concentration of compound I indicated in Table 2.
The gel without active ingredient has the following composition:
2.25 % sodium carboxymethylcellulose (Hercules, USA)
made up to 100 % with bi-distilled water.
The effect of the treatment can be seen in Table 2.
The symptoms occurring in untreated animals are described in B. Lukas et al., Arch. Virol. 49, 1-11 (1975) .

[3] = system: Encephalomyocarditis; assay: Survival of mice infected intranasally with lethal dose of Encephalomyocarditis virus; settings: oral, control 30
[4] = system: Herpes Simplex 1/Virtue; assay: Survival of mice infected intranasally with lethal dose of Herpes Simplex 1/Virtue; settings: intranasal, day -7, 0.1 mg/kg single dose; control 40
[5] = system: vaccinal virus IHD; assay: Tail lesions in mice infected intravenously with vaccinal virus IHD; settings: 1 mg/kg oral; for Number of tail lesions (mean ± standard deviation) on day +7 / Number of tail lesions (mean ± standard deviation) on day +9: control 4.3 ± 1.9; for Number of tail lesions (mean ± standard deviation) on day +12: control 4.6 ± 1.8; for Number of tail lesions (mean ± standard deviation) on day +10: control 5.9 ± 1.9
Procedure: Groups of 20 female Tif:MF-2f (SPF) mice each having a body weight of 14-16 g are infected intravenously, under light anaesthesia using a mixture of equal parts of diethyl ether, ethanol and chloroform, with 2×10^3 PFU vaccinal virus IHD in the form of in each case 0.1 ml of a suspension of the virus in beef heart infusion broth.
10 of these mice from each of the above-mentioned groups are treated on the fourth or sixth day after infection, that is to say on day +4 or +6 (administration day), with a single oral administration of 1 mg/kg of compound I in 0.2 ml of a 0.05 % by weight aqueous solution of sodium carboxymethylcellulose.
The remaining 10 mice from each of the above-mentioned groups serve as the controls and receive a placebo.
On the seventh, ninth, tenth and twelfth day after infection the number of tail lesions in the mice is determined, this being carried out substantially as described by J. J. Boyle, R. F. Haff and R. C. Stewart in Antimicrobial Agents and Chemotherapy, 536-539 (1967), and it should be noted that the first tail lesions can be identified only on the sixth or seventh day.

[6] = system: Herpes Simplex 1/TUP; assay: Survival of mice infected intranasally with lethal dose of Herpes Simplex 1/TUP; settings: intranasal, day -7, 0.1 mg/kg single dose; control 20
Procedure: Groups of 30, 40 or 50 female MF-2f SPF mice each having a body weight of 14-16 g, or of 12-14 g in the case of tests with herpes simplex 1 viruses, are infected intranasally, under light anaesthesia using a mixture of equal parts of ether, ethanol and chloroform, with lethal doses (approximately LD80-90; number of plaque-forming units [PFU] see Table 1 ) of the undermentioned virus strains in the form of 0.05 ml in each case of a suspension of the viruses.
At the time indicated below (days) in relation to the day of infection, 10 or 20 of these mice are administered once (single dose) the quantities indicated in Table 1 of the active ingredient, the sodium salt of N-acetylmuramyl-L-alanyl-D-isoglutaminyl-L-alanine-2-(1,2-dipalmitoyl-sn-glycero-3-hydroxyphosphoryloxy)-ethylamide (compound I), in 0.05 ml or 0.1 ml of phosphate-buffered salt solution (PBS) or in 0.2 ml of a 0.05 % by weight solution of sodium carboxymethylcellulose in double-distilled water, by means of intranasal, intravenous or oral administration respectively, in the manner indicated in Table 1 .
The remainder of the above-mentioned mice, that is 20 or 30, serve as the control, that is to say they either receive no treatment or are given a placebo.
The intranasal administration of compound I is effected under light anaesthesia using a mixture of equal parts of diethyl ether, ethanol and chloroform.

[7] = 0.1 ml gel 0.1 % intravaginal, single dose day +4, N 13
[8] = 0.1 ml gel 0.1 % intravaginal, single dose day -7, N 14
[9] = 0.1 ml gel 1.0 % intravaginal, single dose day +4, N 14
[10] = 0.1 ml gel 1.0 % intravaginal, single dose day -7, N 14
[11] = single administration on day +4
[12] = single administration on day +6

CCCCCCCCCCCCCCCC(=O)OC[C@H](COP(=O)(O)OCCNC(=O)[C@H](C)NC(=O)CC[C@@H](NC(=O)[C@H](C)NC(=O)[C@@H](C)O[C@H]1[C@H](O)[C@@H](CO)OC(O)[C@@H]1NC(C)=O)C(N)=O)OC(=O)CCCCCCCCCCCCCCC (stereo partly drawn) [compound I, N-acetylmuramyl-L-alanyl-D-isoglutaminyl-L-alanine-2-(1,2-dipalmitoyl-sn-glycero-3-hydroxyphosphoryloxy)-ethylamide]
Percentage survivors [1]: 80%
Animals [%] with regression of symptoms of ≥ 66% on day 7 [2, 7]: 62%
Animals [%] with regression of symptoms of ≥ 66% on day 10 [2, 7]: 85%
Animals [%] with regression of symptoms of ≥ 66% on day 12 [2, 7]: 100%
Animals [%] with regression of symptoms of ≥ 66% on day 14 [2, 7]: 93%
Symptom-free animals [%] on day 10 [2, 7]: 70%
Symptom-free animals [%] on day 12 [2, 7]: 77%
Symptom-free animals [%] on day 14 [2, 7]: 85%
Symptom-free animals [%] on day 21 [2, 7]: 100%
Symptom-free animals [%] on day 34 [2, 7]: 100%
Animals [%] with regression of symptoms of ≥ 66% on day 7 [2, 8]: 21%
Animals [%] with regression of symptoms of ≥ 66% on day 10 [2, 8]: 57%
Animals [%] with regression of symptoms of ≥ 66% on day 12 [2, 8]: 86%
Animals [%] with regression of symptoms of ≥ 66% on day 14 [2, 8]: 100%
Symptom-free animals [%] on day 10 [2, 8]: 43%
Symptom-free animals [%] on day 12 [2, 8]: 64%
Symptom-free animals [%] on day 14 [2, 8]: 86%
Symptom-free animals [%] on day 21 [2, 8]: 86%
Symptom-free animals [%] on day 34 [2, 8]: 100%
Animals [%] with regression of symptoms of ≥ 66% on day 7 [2, 9]: 79%
Animals [%] with regression of symptoms of ≥ 66% on day 10 [2, 9]: 79%
Animals [%] with regression of symptoms of ≥ 66% on day 12 [2, 9]: 86%
Animals [%] with regression of symptoms of ≥ 66% on day 14 [2, 9]: 93%
Symptom-free animals [%] on day 10 [2, 9]: 36%
Symptom-free animals [%] on day 12 [2, 9]: 64%
Symptom-free animals [%] on day 14 [2, 9]: 79%
Symptom-free animals [%] on day 21 [2, 9]: 86%
Symptom-free animals [%] on day 34 [2, 9]: 100%
Animals [%] with regression of symptoms of ≥ 66% on day 7 [2, 10]: 29%
Animals [%] with regression of symptoms of ≥ 66% on day 10 [2, 10]: 79%
Animals [%] with regression of symptoms of ≥ 66% on day 12 [2, 10]: 71%
Animals [%] with regression of symptoms of ≥ 66% on day 14 [2, 10]: 93%
Symptom-free animals [%] on day 10 [2, 10]: 21%
Symptom-free animals [%] on day 12 [2, 10]: 57%
Symptom-free animals [%] on day 14 [2, 10]: 86%
Symptom-free animals [%] on day 21 [2, 10]: 86%
Symptom-free animals [%] on day 34 [2, 10]: 100%
Percentage survivors ([3]; day +4, 1 mg/kg single dose): 90%
Percentage survivors ([3]; day +4, 10 mg/kg single dose): 70%
Percentage survivors ([3]; day +4, 100 mg/kg single dose): 100%
Percentage survivors [4]: 70%
Number of tail lesions (mean ± standard deviation) on day +7 [5, 11]: 0.9 ± 0.7
Number of tail lesions (mean ± standard deviation) on day +9 [5, 11]: 0.9 ± 0.9
Number of tail lesions (mean ± standard deviation) on day +12 [5, 11]: 0.2 ± 0.4
Number of tail lesions (mean ± standard deviation) on day +10 [5, 11]: 0.9 ± 1.4
Number of tail lesions (mean ± standard deviation) on day +7 [5, 12]: 1.1 ± 1.4
Number of tail lesions (mean ± standard deviation) on day +9 [5, 12]: 0.9 ± 1.6
Number of tail lesions (mean ± standard deviation) on day +12 [5, 12]: 0.5 ± 1.0
Number of tail lesions (mean ± standard deviation) on day +10 [5, 12]: 0.3 ± 0.7
Percentage survivors [6]: 60%
